Assay results from patent US12433908B2, “Use of nicotinamide riboside, nicotinic acid riboside, and nicotinamide mononucleotide, reduced nicotinyl compounds, and nicotinoyl compound derivatives in infant formula for healthy development” (ChromaDex, Inc., priority 2016, dated 2025).
“Also recorded” adds a separate entry of the source.

Assay: Fecal SCFA analysis by gas chromatography in piglets given NR solution
Assay type: in vivo, piglets (Yorkshire/Hampshire crossbred)
Description: Sixteen (n=16) Yorkshire/Hampshire crossbred piglets were obtained from the University of California, Davis Swine Teaching and Research Center and received on lactation day (“LD”) 14. Prior to arrive, the piglets were processed by the suppler between 1-3 days of age by administration of iron and an antibiotic ([…] for swine) as is common practice at the University of California, Davis Swine Facility. It is not common practice at the University of California, Davis Swine Facility to give a second dose of iron and antibiotics unless it becomes necessary. The piglets were from two litters (litters 15 and 17), weaned at 17 days of age, and randomly placed into one of two groups balanced for litter, sex, and weight. The animals were not acclimated to the facility at arrival and were subsequently acclimated to the test diet administration system. The piglets were weaned into a temperature-controlled room (approximately 27-29° C.) that contained 10 adjacent pens. The piglets were group-housed in the nursery room at the Swine Facility, which is an enclosed room with access restricted to trained personnel. The two groups were separated by one pen containing piglets of similar age. Each morning enough nicotinamide riboside (NR, I) in water solution was prepared for that day's dose administration according to the dose preparation protocol. At least 5 mL of prepared dose was reserved and immediately frozen after preparation each day for analysis of nicotinamide riboside (NR, I) for the purpose of confirming stability of the dose material. The doses were stored at refrigeration temperature while not in use. Nicotinamide riboside (NR, I) was dosed once per day in the morning and at the same time each day. Piglets in the control group received the same volume of plain water and were dosed on the same schedule. Starting on Day 1, animals in the nicotinamide riboside (NR, I) group were dosed once daily (in the morning) with 277 mg nicotinamide riboside (NR, I) per pig resuspended in water for seven days. After one week, animals were dosed once daily with 342 mg nicotinamide riboside (NR, I) per pig delivered in 2.5 mL for seven days. For Days 1 and 2, the nicotinamide riboside (NR, I) solution was prepared by resuspending 2770 mg nicotinamide riboside (NR, I) in 50 mL water, and 5 mL of this solution was delivered to each pig by squirting it into the back of the mouth using a 10 mL syringe with a piece of tubing attached to the end. To reduce the volume to more efficiently deliver the nicotinamide riboside (NR, I) solution, the 2770 mg was resuspended in 25 mL water and 2.5 mL of the solution was squirted into the back of the mouth of each pig using a 3 mL syringe for Days 3-7. For Days 8-14, 3420 mg nicotinamide riboside (NR, I) was resuspended in 25 mL water and 2.5 mL of this solution was delivered to each pig. Each day prior to dosing, 2.5 mL of the nicotinamide riboside (NR, I) (5 mL on Days 1 and 2) were placed into a separate tube and frozen. Fresh fecal samples were collected from each pig on Days 1 (baseline), 8 (Wk 1), and 14 (Wk 2), and frozen. When a freshly voided sample could not be obtained, the rectum was swabbed. A total of 100 mg of feces from each pig was used for SCFA analysis using gas chromatography with known standards for acetic acid, propionic acid, isobutyric acid, butyric acid, isovaleric acid, and valeric acid. Samples were extracted with 25% metaphosphoric acid and each extraction run in triplicate on a GC equipped with the PeakSimple Chromatography Data System. Data was analyzed using a one-way ANoVA or the non-parametric Kruskal-Wallis test if the distribution of values was not Gaussian. A conservative analysis of the data is presented below (animals that had to be swabbed to get a fecal sample) in Table 3 and an analysis of the data including the swab samples is in Table 8. The trends are similar, the p-values are not.

[1] = 1 week of daily administration of 277 mg of NR in water
[2] = Wk 1, 277 mg/pig once daily oral
[3] = including the swab samples, Baseline, before dosing
[4] = including the swab samples, Wk 1, 277 mg/pig once daily oral
[5] = including the swab samples, third column group, headed 'Wk 1' again
[6] = without swab samples, Baseline, before dosing
[7] = without swab samples, Wk 1, 277 mg/pig once daily oral
[8] = without swab samples, third column group, headed 'Wk 1' again

NC(=O)c1ccc[n+]([C@@H]2O[C@H](CO)[C@@H](O)[C@H]2O)c1 [NR, Nicotinamide riboside]
Fecal SCFA levels [1]: increased
fecal acetic acid (C2), propionic acid (C3), and butyric acid (C4) [1]: marked increases
Fecal SCFA Acetic Acid, Δ vs. baseline (NR) [2]: 15.1 ppm
Fecal SCFA Butyric Acid, Δ vs. baseline (NR) [2]: 26.3 ppm
Fecal SCFA Isobutyric Acid, Δ vs. baseline (NR) [2]: −3.4 ppm
Fecal SCFA Isovaleric Acid, Δ vs. baseline (NR) [2]: −4.3 ppm
Fecal SCFA Propionic Acid, Δ vs. baseline (NR) [2]: 35.9 ppm
Fecal SCFA Valeric Acid, Δ vs. baseline (NR) [2]: 5.4 ppm
Fecal SCFA Acetic Acid, Significant change from baseline within group (Wk 1 vs. baseline): No
Fecal SCFA Butyric Acid, Significant change from baseline within group (Wk 1 vs. baseline): statistically significant; also recorded: Yes, P < 0.05
Fecal SCFA Isobutyric Acid, Significant change from baseline within group (Wk 1 vs. baseline): No
Fecal SCFA Isovaleric Acid, Significant change from baseline within group (Wk 1 vs. baseline): No
Fecal SCFA Propionic Acid, Significant change from baseline within group (Wk 1 vs. baseline): statistically significant; also recorded: Yes, P < 0.05
Fecal SCFA Valeric Acid, Significant change from baseline within group (Wk 1 vs. baseline): No
Fecal SCFA Isobutyric Acid (including the swab samples): 7.9 ± 10.9 ppm
Fecal SCFA Propionic Acid (including the swab samples): 51.5 ± 45.7 ppm
Fecal SCFA Valeric Acid (including the swab samples): 7.8 ± 11.3 ppm
Fecal SCFA Acetic Acid [3]: 43.5 ± 23.5 ppm
Fecal SCFA Butyric Acid [3]: 11.1 ± 18.4 ppm
Fecal SCFA Isobutyric Acid [3]: 9.5 ± 9.3 ppm
Fecal SCFA Isovaleric Acid [3]: 16.8 ± 14.0 ppm
Fecal SCFA Propionic Acid [3]: 15.3 ± 10.6 ppm
Fecal SCFA Valeric Acid [3]: 2.4 ± 6.9 ppm
Fecal SCFA Acetic Acid [4]: 58.6 ± 14.5 ppm
Fecal SCFA Butyric Acid [4]: 37.4 ± 16.8 ppm
Fecal SCFA Isobutyric Acid [4]: 6.1 ± 6.4 ppm
Fecal SCFA Isovaleric Acid [4]: 12.5 ± 9.1 ppm
Fecal SCFA Propionic Acid [4]: 51.2 ± 13.2 ppm
Fecal SCFA Valeric Acid [4]: 7.8 ± 6.6 ppm
Fecal SCFA Acetic Acid [5]: 70.1 ± 62.6 ppm
Fecal SCFA Butyric Acid [5]: 41.2 ± 34.6 ppm
Fecal SCFA Isovaleric Acid [5]: 11.3 ± 15.7 ppm
Fecal SCFA Isobutyric Acid (without swab samples): 15.9 ± 10.6 ppm
Fecal SCFA Propionic Acid (without swab samples): 90.0 ± 30.4 ppm
Fecal SCFA Valeric Acid (without swab samples): 15.7 ± 11.5 ppm
Fecal SCFA Acetic Acid [6]: 43.5 ± 23.5 ppm
Fecal SCFA Butyric Acid [6]: 11.1 ± 18.4 ppm
Fecal SCFA Isobutyric Acid [6]: 9.5 ± 9.3 ppm
Fecal SCFA Isovaleric Acid [6]: 16.8 ± 14.0 ppm
Fecal SCFA Propionic Acid [6]: 15.3 ± 10.6 ppm
Fecal SCFA Valeric Acid [6]: 2.4 ± 6.9 ppm
Fecal SCFA Acetic Acid [7]: 55.78 ± 13.4 ppm
Fecal SCFA Butyric Acid [7]: 36.9 ± 18.3 ppm
Fecal SCFA Isobutyric Acid [7]: 5.8 ± 6.5 ppm
Fecal SCFA Isovaleric Acid [7]: 11.9 ± 9.8 ppm
Fecal SCFA Propionic Acid [7]: 49.3 ± 13.3 ppm
Fecal SCFA Valeric Acid [7]: 6.7 ± 6.7 ppm
Fecal SCFA Acetic Acid [8]: 118.7 ± 55.01 ppm
Fecal SCFA Butyric Acid [8]: 70.8 ± 21.9 ppm
Fecal SCFA Isovaleric Acid [8]: 22.5 ± 15.5 ppm
